Measured values reported in patent US6573253B2, “Methods for the administration of amifostine and related compounds” (MedImmune Oncology Inc., priority 1997, dated 2003).
Read-outs that look alike come from different tables or passages of the source.

Conditions: human, in vivo
Description: All subjects were sequestered at the study site from the evening before the administration of the first dose of study drug until the final whole blood sample was obtained.
Blood samples (5 to 7 mL each) were collected either by venipuncture or indwelling venous catheter (IVC) heparin lock. If IVC was used, it was inserted in the arm opposite the infusion site. […] For either line, the first 3 to 5 cc of blood were discarded (void volume) prior to blood collection.
To prevent further oxidation of WR-1065, PCA/EDTA was added to the samples prior to centrifugation. Because PCA/EDTA ruptures the cellular content of the blood, the samples were centrifuged for a longer period of time to prevent contamination/metabolism of the active metabolite. Consequently, only the clear supernatant (serum) was used for analysis of WR-1065. In contrast, no PCA/EDTA was added to the blood samples designated for analysis of the parent drug; therefore, plasma samples were prepared for analysis of the parent drug.
WINNONLIN, the WINDOWS version of PCNONLIN, was used for the determination of pharmacokinetic parameters for each subject following each route of administration. Non-compartmental modelling of the data was performed.
AUCs were calculated using extrapolation according to a straightline from the last non-zero point.
The AUCs were then analyzed using an analysis of variance (ANOVA) model with route, period and subject as variables. Sequence was not included in the model as this variable was uniquely determined by route and period. The confidence interval on the ratio of the subcutaneous or oral route to the intravenous route was calculated using the mean square error from the entire ANOVA model.

With `NCCCNCCS` [WR-1065, 2-[3-aminopropylamino]ethanethiol] the “absolute bioavailability of the active metabolite” value was 0.53, the “time after administration at which concentration fell below 5 μM, WR-1065” value (iv) was “approximately 45 minutes” and the “time after administration at which concentration fell below 5 μM, WR-1065” value (sc) was “approximately 60 minutes”. For the same compound, the “peak levels (maximum whole blood concentration)” value (male, iv) was “about 23 μM”, the maximum blood levels (male, sc) was ~4 µM and the “time to maximum and sustained whole blood concentration” value (male, sc) was 15 to 45 min.
